# Laboratory results published in ChEMBL document CHEMBL1201862, “PubChem BioAssay data set” (2004).
# Active and inactive are the calls of the source.
# Assays:
# [1] = tested on: HeLa; assay: ATP-based viability loss in HeLa cells – cell-based, CellTiter-Glo luminescence, cherry-pick samples, cytotoxicity control for MITF activator project, dose response (AID 540259); type: functional; conditions: Homo sapiens
# [2] = biological target: Sphingosine 1-phosphate receptor 2 (Homo sapiens, UniProt O95136); assay: Dose Response Cell Based Assay for Agonists of the S1P2 Receptor. [Related pubchem assays: 729, 736, 843 ]; type: functional
# [3] = biological target: Phospholipase A2 (Homo sapiens, UniProt P04054); type: functional;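 further: confirmatory dose-response counterscreen on phospholipase A2, testing hits that came from an ultra-high-throughput screen for ATG4B inhibitors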
# Chain of Phospholipase A2 (P04054 whole entry): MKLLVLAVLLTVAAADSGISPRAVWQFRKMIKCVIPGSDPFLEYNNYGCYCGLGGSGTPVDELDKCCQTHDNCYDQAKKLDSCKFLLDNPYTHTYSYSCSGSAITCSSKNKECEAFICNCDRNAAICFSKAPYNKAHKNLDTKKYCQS
# [4] = biological target: Cysteine protease ATG4B (Homo sapiens, UniProt Q9Y4P1); type: functional;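 further: Fluorescence-based dose-response confirmation assay measuring inhibition of ATG4B activity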
# Chain of Cysteine protease ATG4B (Q9Y4P1 whole entry): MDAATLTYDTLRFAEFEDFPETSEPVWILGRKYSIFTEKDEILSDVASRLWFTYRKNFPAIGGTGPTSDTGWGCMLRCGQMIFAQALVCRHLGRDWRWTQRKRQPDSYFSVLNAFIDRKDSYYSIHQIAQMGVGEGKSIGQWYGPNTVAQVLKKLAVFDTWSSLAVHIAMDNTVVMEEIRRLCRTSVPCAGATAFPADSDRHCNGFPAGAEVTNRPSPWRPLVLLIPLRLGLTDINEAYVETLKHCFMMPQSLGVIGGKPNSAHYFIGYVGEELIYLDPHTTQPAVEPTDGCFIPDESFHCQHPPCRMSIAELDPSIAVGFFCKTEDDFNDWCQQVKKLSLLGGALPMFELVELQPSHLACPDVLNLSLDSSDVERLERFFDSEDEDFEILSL
# [5] = tested on: Escherichia coli; assay: microbe, parasite or virus in culture
# [6] = biological target: Induced myeloid leukemia cell differentiation protein Mcl-1 (Homo sapiens, UniProt Q07820); type: functional
# [7] = biological target: 5-hydroxytryptamine receptor 5A (Homo sapiens, UniProt P47898); assay: Counterscreen for agonists of OPRM1-OPRD1 heterodimerization: luminescence-based cell-based high throughput dose response assay to identify agonists of 5-hydroxytryptamine (serotonin) 5A receptor (HTR5A). [Related pubchem assays (depositor defined):AID504326, AID504355, AID504692, AID504904, AID504905]; type: functional
# Chain of 5-hydroxytryptamine receptor 5A (P47898 whole entry): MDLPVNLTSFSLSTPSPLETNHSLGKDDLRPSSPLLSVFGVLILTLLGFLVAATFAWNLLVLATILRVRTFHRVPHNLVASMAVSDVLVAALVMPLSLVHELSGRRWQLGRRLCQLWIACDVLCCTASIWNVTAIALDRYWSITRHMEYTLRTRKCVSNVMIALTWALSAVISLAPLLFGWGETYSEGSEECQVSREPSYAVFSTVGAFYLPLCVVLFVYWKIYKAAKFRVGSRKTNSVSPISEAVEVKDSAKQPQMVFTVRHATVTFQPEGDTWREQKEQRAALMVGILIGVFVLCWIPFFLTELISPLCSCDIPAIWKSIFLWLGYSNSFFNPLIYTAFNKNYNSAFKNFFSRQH
# [8] = biological target: Mu-type opioid receptor (Homo sapiens, UniProt P35372); assay: (§1) Counterscreen for agonists of heterodimerization of the mu 1 (OPRM1) and delta 1 (OPRD1) opioid receptors: Luminescence-based cell-based high throughput dose response assay to identify agonists of OPRM1 homodimerization.; type: functional
# Chain of Mu-type opioid receptor (P35372 whole entry): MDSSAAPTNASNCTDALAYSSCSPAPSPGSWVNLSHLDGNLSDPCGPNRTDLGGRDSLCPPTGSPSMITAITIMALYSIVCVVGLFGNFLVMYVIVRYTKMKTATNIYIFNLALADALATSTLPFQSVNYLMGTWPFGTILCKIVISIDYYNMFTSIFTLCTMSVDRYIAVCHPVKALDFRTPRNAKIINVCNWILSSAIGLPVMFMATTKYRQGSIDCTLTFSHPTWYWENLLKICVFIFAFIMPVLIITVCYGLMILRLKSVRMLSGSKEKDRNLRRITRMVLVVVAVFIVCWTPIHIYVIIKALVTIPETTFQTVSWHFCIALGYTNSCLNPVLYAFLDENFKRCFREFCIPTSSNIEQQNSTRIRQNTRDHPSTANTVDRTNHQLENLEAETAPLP
# [9] = biological target: Delta-type opioid receptor (Homo sapiens, UniProt P41143); assay: as §1, with “of OPRD1” for “of OPRM1”, “homodimerization. [Related pubchem assays (depositor defined):AID504326, AID504355, AID504692, AID504904, AID504905]” for “homodimerization.”; type: functional
# Chain of Delta-type opioid receptor (P41143 whole entry): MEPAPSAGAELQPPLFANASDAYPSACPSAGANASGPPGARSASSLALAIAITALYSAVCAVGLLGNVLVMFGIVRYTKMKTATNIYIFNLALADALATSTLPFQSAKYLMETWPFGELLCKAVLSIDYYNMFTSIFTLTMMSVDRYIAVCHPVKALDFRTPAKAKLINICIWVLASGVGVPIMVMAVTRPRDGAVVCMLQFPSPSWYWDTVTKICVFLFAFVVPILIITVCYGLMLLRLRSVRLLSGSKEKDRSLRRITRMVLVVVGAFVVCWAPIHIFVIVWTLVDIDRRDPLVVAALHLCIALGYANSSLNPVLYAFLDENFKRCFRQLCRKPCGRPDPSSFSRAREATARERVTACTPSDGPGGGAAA
# [10] = biological target: Lysine-specific demethylase 4A (Homo sapiens, UniProt O75164); assay: inhibition of JMJD2A H3K9me3 demethylation – biochemical, DELFIA europium, cherry-picked samples, selectivity assay for GASC-1 inhibitor project, dose response (AID 488840)
# Chain of Lysine-specific demethylase 4A (O75164 whole entry): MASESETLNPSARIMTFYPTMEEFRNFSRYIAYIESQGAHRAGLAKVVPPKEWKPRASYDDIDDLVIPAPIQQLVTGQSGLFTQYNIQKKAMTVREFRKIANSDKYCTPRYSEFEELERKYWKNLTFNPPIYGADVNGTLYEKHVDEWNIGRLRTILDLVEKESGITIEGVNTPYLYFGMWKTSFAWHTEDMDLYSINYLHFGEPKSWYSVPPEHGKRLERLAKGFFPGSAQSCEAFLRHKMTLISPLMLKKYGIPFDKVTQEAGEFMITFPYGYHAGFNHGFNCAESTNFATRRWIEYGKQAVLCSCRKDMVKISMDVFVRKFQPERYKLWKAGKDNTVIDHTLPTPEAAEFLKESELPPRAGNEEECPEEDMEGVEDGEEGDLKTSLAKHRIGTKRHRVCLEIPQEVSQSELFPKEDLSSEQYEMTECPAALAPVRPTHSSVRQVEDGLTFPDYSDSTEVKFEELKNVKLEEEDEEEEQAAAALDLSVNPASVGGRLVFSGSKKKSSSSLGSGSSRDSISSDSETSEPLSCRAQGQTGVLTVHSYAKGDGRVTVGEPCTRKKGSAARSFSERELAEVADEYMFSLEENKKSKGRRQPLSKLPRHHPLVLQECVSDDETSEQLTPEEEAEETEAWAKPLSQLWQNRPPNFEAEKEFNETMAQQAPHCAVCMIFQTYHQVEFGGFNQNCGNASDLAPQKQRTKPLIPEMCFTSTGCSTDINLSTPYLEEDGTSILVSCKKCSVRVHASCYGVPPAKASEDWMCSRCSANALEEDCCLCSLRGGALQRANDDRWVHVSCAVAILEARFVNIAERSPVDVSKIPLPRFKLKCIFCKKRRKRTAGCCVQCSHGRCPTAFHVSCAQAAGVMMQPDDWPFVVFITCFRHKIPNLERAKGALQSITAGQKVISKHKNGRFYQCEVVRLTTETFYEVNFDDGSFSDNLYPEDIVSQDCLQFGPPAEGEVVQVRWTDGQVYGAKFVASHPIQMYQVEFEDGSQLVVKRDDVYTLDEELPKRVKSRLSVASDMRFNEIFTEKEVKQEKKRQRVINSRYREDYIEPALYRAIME
# [11] = biological target: Dual specificity tyrosine-phosphorylation-regulated kinase 1A (Rattus norvegicus, UniProt Q63470); type: biochemical, Homo sapiens
# [12] = biological target: Genome polyprotein (dengue virus type 2, UniProt P29990); assay: flavivirus cap methylation enzyme inhibition – biochemical, confirmation dose response, primary screen (AID 588689); type: functional
# [13] = tested on: Vero; assay: cells; type: functional; conditions: Chlorocebus sabaeus
# [14] = biological target: G-protein coupled receptor 55 (Homo sapiens, UniProt Q9Y2T6); assay: inhibition of LPI-stimulated GPR55 beta-arrestin translocation – imaging, U2OS, beta-arrestin-GFP, LPI agonist, primary screen (AID 2013); type: functional;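 further: antagonist potency measured as reduced agonist-driven arrestin aggregation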
# [15] = biological target: T1, Alkaline phosphatase, tissue-nonspecific isozyme (Homo sapiens, UniProt P05186); assay: TNAP enzyme inhibition by screening hits, dose response, selectivity assay for mouse IAP inhibitor project, biochemical, human TNAP, uHTS hits (AID 488906); type: functional
# T1 sequence (P05186 whole entry): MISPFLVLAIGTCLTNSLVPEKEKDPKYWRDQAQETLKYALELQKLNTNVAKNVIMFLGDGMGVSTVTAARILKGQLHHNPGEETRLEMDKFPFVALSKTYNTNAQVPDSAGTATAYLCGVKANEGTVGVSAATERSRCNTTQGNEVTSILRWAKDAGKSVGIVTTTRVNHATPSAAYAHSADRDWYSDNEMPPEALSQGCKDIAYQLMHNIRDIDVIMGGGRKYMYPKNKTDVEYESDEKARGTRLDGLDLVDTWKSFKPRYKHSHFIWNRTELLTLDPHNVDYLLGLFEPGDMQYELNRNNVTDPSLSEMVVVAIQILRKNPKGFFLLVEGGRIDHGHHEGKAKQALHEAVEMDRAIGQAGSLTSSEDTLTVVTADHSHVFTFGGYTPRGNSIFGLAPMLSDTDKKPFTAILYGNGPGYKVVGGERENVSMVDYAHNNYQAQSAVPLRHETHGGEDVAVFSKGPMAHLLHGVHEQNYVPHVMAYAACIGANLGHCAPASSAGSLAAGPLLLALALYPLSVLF
# [16] = biological target: Intestinal-type alkaline phosphatase (Mus musculus, UniProt P24822); assay: PubChem AID 488785; type: functional
# Chain of Intestinal-type alkaline phosphatase (Mus musculus, UniProt P24822) (P24822 whole entry): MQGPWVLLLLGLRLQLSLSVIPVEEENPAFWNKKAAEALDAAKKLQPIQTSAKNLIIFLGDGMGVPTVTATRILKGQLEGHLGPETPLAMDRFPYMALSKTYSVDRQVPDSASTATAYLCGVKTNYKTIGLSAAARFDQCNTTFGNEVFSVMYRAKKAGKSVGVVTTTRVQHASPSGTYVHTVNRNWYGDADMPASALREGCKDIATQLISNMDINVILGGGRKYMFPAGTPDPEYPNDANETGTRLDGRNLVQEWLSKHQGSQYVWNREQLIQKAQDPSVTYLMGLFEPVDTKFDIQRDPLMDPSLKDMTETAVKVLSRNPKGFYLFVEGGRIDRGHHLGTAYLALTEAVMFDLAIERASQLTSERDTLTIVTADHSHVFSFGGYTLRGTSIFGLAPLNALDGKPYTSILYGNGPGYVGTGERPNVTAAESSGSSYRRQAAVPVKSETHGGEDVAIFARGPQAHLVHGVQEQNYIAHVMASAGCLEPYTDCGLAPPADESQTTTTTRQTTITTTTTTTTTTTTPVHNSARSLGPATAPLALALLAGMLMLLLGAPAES
# [17] = biological target: Intestinal-type alkaline phosphatase (Homo sapiens, UniProt P09923); assay: inhibition of human intestinal alkaline phosphatase – biochemical, dose response (AID 488876); type: functional
# Chain of Intestinal-type alkaline phosphatase (Homo sapiens, UniProt P09923) (P09923 whole entry): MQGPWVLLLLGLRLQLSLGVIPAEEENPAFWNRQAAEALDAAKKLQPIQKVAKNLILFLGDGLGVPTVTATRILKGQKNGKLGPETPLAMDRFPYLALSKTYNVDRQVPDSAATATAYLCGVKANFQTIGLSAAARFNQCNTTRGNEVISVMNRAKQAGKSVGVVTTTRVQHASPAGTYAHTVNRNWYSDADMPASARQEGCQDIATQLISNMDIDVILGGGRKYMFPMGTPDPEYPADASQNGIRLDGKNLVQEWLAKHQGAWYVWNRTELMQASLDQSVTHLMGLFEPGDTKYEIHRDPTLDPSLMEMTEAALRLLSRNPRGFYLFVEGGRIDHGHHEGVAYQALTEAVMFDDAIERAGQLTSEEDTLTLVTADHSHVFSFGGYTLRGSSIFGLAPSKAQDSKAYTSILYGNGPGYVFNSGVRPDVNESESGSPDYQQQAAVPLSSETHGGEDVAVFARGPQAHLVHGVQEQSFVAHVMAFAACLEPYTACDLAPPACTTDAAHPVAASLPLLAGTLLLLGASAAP
# [18] = NIH3T3 cell viability loss – ATP luminescence, mouse fibroblasts, counter-screen, dose response (AID 2010); type: functional, cell-based;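 further: cells exposed to compound for about 90 hours before reading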
# [19] = Trypanosoma cruzi growth suppression in host cells – NIH3T3 host cells, beta-gal luminescence, confirmation (AID 2044); type: functional, cell-based;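 further: intracellular parasites grown in NIH/3T3 mouse fibroblasts as host cells; luminescent beta-galactosidase reporter signal from transgenic T. cruzi replicating inside host cells; inhibitors lower the luminescence signal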
# [20] = tested on: HEK293; assay: cells; conditions: Homo sapiens
# [21] = tested on: HEK293; assay: cells; conditions: Homo sapiens; remark: listed apart in the source
# [22] = biological target: CAAX prenyl protease 2 (Saccharomyces cerevisiae S288c, UniProt Q03530); type: biochemical
# [23] = biological target: CAAX prenyl protease 2 (Homo sapiens, UniProt Q9Y256); assay: inhibition of Ras-converting CAAX protease Rce1 – biochemical, yeast membranes, quenched-peptide fluorescence, cherry-pick, dose response (AID 588849)
# [24] = biological target: T2, Nuclear receptor subfamily 0 group B member 1 (Homo sapiens, UniProt P51843); assay: Luminescence-based cell-based high throughput dose response assay for inhibitors of the orphan nuclear receptor subfamily 0, group B, member 1 (DAX1; NR0B1). [Related pubchem assays (depositor defined):AID504766, AID504790]; type: functional
# T2 sequence (P51843 whole entry): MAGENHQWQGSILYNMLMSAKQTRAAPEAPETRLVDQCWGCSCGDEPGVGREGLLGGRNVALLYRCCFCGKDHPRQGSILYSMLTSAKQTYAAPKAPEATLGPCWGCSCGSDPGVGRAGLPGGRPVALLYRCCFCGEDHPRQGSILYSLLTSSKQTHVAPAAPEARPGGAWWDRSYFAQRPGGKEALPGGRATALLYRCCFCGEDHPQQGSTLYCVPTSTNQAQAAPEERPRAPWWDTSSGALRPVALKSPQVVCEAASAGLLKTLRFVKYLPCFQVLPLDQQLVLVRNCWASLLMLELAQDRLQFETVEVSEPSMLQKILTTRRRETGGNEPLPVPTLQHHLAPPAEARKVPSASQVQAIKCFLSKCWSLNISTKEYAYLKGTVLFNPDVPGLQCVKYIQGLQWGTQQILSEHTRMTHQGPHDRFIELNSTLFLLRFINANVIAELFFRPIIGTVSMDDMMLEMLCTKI
# [25] = tested on: HEK293; assay: cells; type: functional, cell-based; conditions: Homo sapiens
# [26] = tested on: Streptococcus; assay: GAS UMAA2166 growth inhibition – luminescence, BacTiterGlo, counter-screen for streptokinase expression inhibitor project, dose response (AID 1915); type: functional, organism-based;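 further: potency for reduction of bacterial viability or growth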
# [27] = tested on: Streptococcus sp. 'group A'; assay: Streptococcus pyogenes SK(-)GAS viability under kanamycin – luminescence, BacTiterGlo, confirmation, counter-screen for streptokinase expression inhibitor project, dose response (AID 1900); type: functional, organism-based
# [28] = biological target: Cytochrome P450 2C19 (Homo sapiens, UniProt P33261); assay: Cytochrome panel assay with activity outcomes. Panel member name: p450-cyp2c19 Compounds with AC50 equal or less than 10 uM are considered active; type: functional
# Chain of Cytochrome P450 2C19 (P33261 whole entry): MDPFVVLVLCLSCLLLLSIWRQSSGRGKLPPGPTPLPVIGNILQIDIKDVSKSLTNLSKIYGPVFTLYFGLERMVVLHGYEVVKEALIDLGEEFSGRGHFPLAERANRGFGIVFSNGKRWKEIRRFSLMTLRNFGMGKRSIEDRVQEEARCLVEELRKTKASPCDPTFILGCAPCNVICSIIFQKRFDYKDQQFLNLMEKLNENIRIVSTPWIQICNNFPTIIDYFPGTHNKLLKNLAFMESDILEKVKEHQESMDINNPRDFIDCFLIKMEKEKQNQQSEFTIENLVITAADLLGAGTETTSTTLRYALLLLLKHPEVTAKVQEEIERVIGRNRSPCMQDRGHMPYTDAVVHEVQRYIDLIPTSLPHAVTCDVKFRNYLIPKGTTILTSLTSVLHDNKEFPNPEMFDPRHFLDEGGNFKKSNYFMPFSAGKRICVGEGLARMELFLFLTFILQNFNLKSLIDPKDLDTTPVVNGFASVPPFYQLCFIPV
# [29] = biological target: T3, Cytochrome P450 3A4 (Homo sapiens, UniProt P08684);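 further: CYP3A4 tested as one member of a cytochrome P450 panel screen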
# T3 sequence (P08684 whole entry): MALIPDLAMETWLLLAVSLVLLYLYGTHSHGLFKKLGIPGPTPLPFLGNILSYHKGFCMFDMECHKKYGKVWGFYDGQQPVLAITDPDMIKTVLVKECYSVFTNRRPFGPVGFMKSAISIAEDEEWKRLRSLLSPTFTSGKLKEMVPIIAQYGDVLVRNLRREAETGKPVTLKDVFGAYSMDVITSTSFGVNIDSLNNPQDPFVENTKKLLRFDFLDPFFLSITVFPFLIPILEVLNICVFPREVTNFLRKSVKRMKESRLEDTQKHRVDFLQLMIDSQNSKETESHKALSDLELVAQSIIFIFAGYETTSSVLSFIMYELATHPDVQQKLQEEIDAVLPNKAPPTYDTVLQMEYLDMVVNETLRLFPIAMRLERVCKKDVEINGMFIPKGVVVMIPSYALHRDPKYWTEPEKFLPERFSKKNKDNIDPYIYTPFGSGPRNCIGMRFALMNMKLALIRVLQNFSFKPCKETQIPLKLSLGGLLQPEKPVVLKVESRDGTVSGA
# [30] = tested on: H4; assay: Luminescence Cell-Based Dose Response HTS to Identify Activators of 5'UTR Stem-Loop Driven Prion Protein mRNA Translation in H4 Neuroglioblastoma Cells. [Related pubchem assays: 1829 (Project Summary), 1814 (Primary HTS)]; type: functional; conditions: Homo sapiens
# [31] = biological target: T3, Cytochrome P450 3A4; remark: listed apart in the source
# [32] = tested on: Escherichia coli; assay: microbe, parasite or virus in culture; remark: listed apart in the source
# [33] = biological target: T4, Protein skinhead-1 (Caenorhabditis elegans, UniProt P34707); type: functional
# T4 sequence (P34707 whole entry): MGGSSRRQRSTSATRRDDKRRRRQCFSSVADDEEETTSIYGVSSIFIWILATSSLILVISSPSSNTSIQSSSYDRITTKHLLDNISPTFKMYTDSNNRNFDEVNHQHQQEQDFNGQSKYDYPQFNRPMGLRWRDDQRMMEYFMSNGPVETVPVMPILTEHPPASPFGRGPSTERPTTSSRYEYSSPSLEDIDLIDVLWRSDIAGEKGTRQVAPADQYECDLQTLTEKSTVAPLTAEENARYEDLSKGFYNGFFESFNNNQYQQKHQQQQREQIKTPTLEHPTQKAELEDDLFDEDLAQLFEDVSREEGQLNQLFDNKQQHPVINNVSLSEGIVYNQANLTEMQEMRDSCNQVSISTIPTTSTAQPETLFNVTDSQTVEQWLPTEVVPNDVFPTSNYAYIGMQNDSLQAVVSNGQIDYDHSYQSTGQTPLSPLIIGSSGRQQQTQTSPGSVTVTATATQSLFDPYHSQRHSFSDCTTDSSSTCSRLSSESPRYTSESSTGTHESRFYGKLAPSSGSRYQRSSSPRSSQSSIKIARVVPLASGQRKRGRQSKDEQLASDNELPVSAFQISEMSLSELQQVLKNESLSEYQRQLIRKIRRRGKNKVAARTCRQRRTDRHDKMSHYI
structure (smiles),measurement,setting,value
O=c1c(-c2nc3ccccc3s2)cccn1Cc1ccccc1,AC50,[1],56.9 µM (active)
same,EC50,[2],7.37 µM (active)
Cc1cc(OC(=O)c2cccs2)ccc1C(C)C,IC50,[3],3.74 µM (active)
same,IC50,[4],5.44 µM (active)
Cc1cccc(N(CC(=O)NC2CCCC2)C(=O)CCCC(=O)Nc2ccccn2)c1,AC50,[5],25 µM (active)
Cc1ccc(/N=C2N=C(O)/C(=C/C=C/c3ccco3)S\2)cc1C,IC50,[3],5.94 µM (active)
same,IC50,[6],13.4 µM (active)
same,IC50,[4],6.65 µM (active)
CCC(=O)OC(Cc1ccccc1)(c1ccccc1)[C@H](C)CN(C)C (stereo not given in full),EC50,[7],> 92.5 µM (inactive)
same,EC50,[8],> 92.5 µM (inactive)
same,EC50,[9],86.4 µM (inactive)
CCn1nnc(NC(=O)c2cc3ccccc3o2)n1,AC50,[10],48.3 µM (active)
NS(=O)(=O)c1ccc(N=Nc2c(O)c(C(=O)O)cc3ccccc23)cc1,AC50,[11],3.59 µM (active)
same,IC50,[12],> 100 µM (active)
Cc1cc(/C=C2\SC(Nc3ccccc3)=NC2=O)c(C)n1-c1ccc(S(N)(=O)=O)cc1,EC50,[7],> 92.5 µM (inactive)
same,CC50,[13],7.44 µM (active)
same,EC50,[8],> 92.5 µM (inactive)
same,IC50,[14],1.66 µM (active)
same,EC50,[9],3.03 µM (active)
CCCn1ncc(CN2CCC(C(=O)Nc3cccc(-c4cccc(F)c4)c3)CC2)c1C,IC50,[15],11.8 µM (active)
same,IC50,[16],0.902 µM (active)
same,IC50,[17],> 100 µM (inactive)
same,EC50,[18],3.89 µM (active)
same,EC50,[19],2.33 µM (active)
CC(C)(C)OC(=O)CC(S(=O)(=O)c1ccccc1)S(=O)(=O)c1ccccc1,EC50,[20],> 59.6 µM (inactive)
same,EC50,[21],> 59.6 µM (inactive)
COc1ccc2cc(C(=O)C3CCCN(C(=O)c4cc(=O)n(C)c(=O)n4C)C3)ccc2c1 (stereo not given),AC50,[22],10.4 µM (active)
same,AC50,[23],14.2 µM (active)
CCn1c(C)cc(C(=O)COC(=O)c2cccnc2SC)c1C,IC50,[24],> 67.5 µM (inactive)
same,IC50,[25],> 67.5 µM (inactive)
COc1c(N2CCN(C(S)=Nc3ccccc3F)C(C)C2)c(F)cc2c(=O)c(C(=O)O)cn(C3CC3)c12 (stereo not given),EC50,[26],3.27 µM (active)
same,AC50,[5],0.518 µM (active)
same,EC50,[27],2.24 µM (active)
COc1cc(SC)ccc1C(=O)Nc1ccc2c(c1)OCO2,IC50,[24],> 67.6 µM (inactive)
same,IC50,[25],> 67.6 µM (inactive)
Cc1ccc(C(=O)C2CCNCC2)cc1.Cl,AC50,[28],inconclusive
same,AC50,[29],inconclusive
O=C1CCCc2nc3c(cc21)C(O)Oc1c-3ccc2ccccc12 (stereo not given),EC50,[30],> 120 µM (not active)
same,AC50,[1],51 µM (active)
C[N+](C)(C)C(Cc1ccccc1)C(=O)[O-] (stereo not given),IC50,[15],60.4 µM (active)
same,IC50,[16],4.35 µM (active)
same,IC50,[17],> 100 µM (inactive)
Cc1ccccc1C(=O)N1CCN(c2ccc([N+](=O)[O-])c(N3CCOCC3)c2)CC1,AC50,[29],inconclusive
O=C(O)c1cc(O)c2c(c1)[C@@H]([C@H]1c3cc(C(=O)O)cc(O)c3C(=O)c3c(O[C@@H]4O[C@H](CO)[C@@H](O)[C@H](O)[C@H]4O)cccc31)c1cccc(O[C@@H]3O[C@H](CO)[C@@H](O)[C@H](O)[C@H]3O)c1C2=O [SENNOSIDE B],AC50,[10],3.69 µM (active)
Fc1cccc(NC(S)=NCCCN2CCOCC2)c1,AC50,[31],17.8 µM (inconclusive)
same,AC50,[32],17.3 µM (active)
same,AC50,[28]; read-out: AC50,17.8 µM (inconclusive)
CCOC(=O)[C@H]1[C@H]2COc3ccc(OC)cc3[C@H]2N2C(=O)CN(Cc3ccccc3)C(=O)[C@@]12C,AC50,[32],54.9 µM (active)
CC(=O)Nc1nc2ccc(Br)cc2s1,AC50,[11],3.33 µM (active)
same,IC50,[33],> 100 µM (inactive)
